Blank lines part the entries; values can stand above or below the compound they belong to.
Legend:
[1] = test system: TAC-induced hypertrophy; assay: Transverse aortic constriction (TAC) mouse model of cardiac hypertrophy; format: in vivo, C59Bl/6 mice; conditions: for Terminal LV + S/TL Ratio (mean) (TAC ratio): day 1-28 post-surgery, left ventricle+septum weight/tibia length
Protocol: Animals: C59Bl/6 mice, 20-40 grams, Charles River (Portage, Mich.).
Test Compound of Example 2: Test compound of Example 2 is formulated. The test article dosing solutions are prepared by titrating the free base with 1 mole/mole dilute (0.02N) HCl and diluting the dissolved test compound in the vehicle (0.5% methylcellulose in distilled water) to a final concentration of 0.45 mg/mL and 1.5 mg/mL dosing solution. A supply of formulation for thirty days of dosing are prepared (day 1-6 for 1st surgical cohort).
Reference Test Compound—Losartan potassium: Losartan is obtained by CorDynamics, and prepared on the day of administration by dissolving in the vehicle (0.5% methylcellulose in distilled water) at concentration of 4.5 mg/mL dosing solution. The compound is agitated with a vortex mixer and sonicated to ensure the compound is in solution.
Transverse Aortic Constriction Surgery: Animals are anesthetized with isoflurane using a nose cone connected to a vaporizer that delivers 1-2% isoflurane driven by 100% oxygen. After initial anesthesia with isoflurane, mice receive 1 mg/kg Buprenex SR (1 mg/mL, s.c.) and 10 mg/kg of etomidate (2 mg/mL, i.p.). Animals are intubated for mechanical ventilation. The endotracheal tube is connected to a mechanical ventilator that provides positive-pressure ventilation with 1-2% isoflurane remainder oxygen, set to maintain ˜120 breaths/min with a tidal volume of ˜200 μL. Body temperature is monitored throughout the experiment.
A sternotomy is performed from the manubrium through the second or third rib in order to expose the aorta in the thoracic cavity. The aorta is cleaned of surrounding tissue and the transverse aorta clamped with a titanium microclip, the diameter similar to a 27 G needle. The transverse aorta from mice in Group 1 is cleaned of surrounding tissue but not clamped. The incision is closed, endotracheal tube is removed and animal is allowed to recover.
Mice are dosed twice daily with vehicle or the compound of Example 2 via oral administration with approximately 6 hours between each dose beginning at 1 day post-surgery. Mice are dosed once daily with losartan via oral administration. Body weights are taken after arrival, prior to surgery, prior to dosing on the first day of dosing and every third day of dosing for dose calculation purposes.
On day 28, echocardiographic measurements are performed for all experimental groups. Animals are anesthetized with isoflurane using a nose cone connected to a vaporizer that delivers 1-2% isoflurane driven by 100% oxygen. Mice are placed in the dorsal decubitus position on a warming platform to maintain body temperature at 37±0.5° C. Heart rate is monitored throughout the experiment. Transthoracic two-dimensional, B-mode, M-mode and pulsed Doppler images are acquired with a high-resolution echocardiographic system (VeVo 770, Visual Sonics, Toronto, ON, Canada) equipped with a 30-MHz mechanical transducer.
After echocardiographic measurements, animals are euthanized via CO2 asphyxiation. Hearts and lungs are harvested and gently infused with ice cold krebs-henseleit buffer (Sigma 3753) until clear. Lungs are weighed and the right and left lung are separated. The right and left lung are immediately frozen in liquid nitrogen and placed into separate tubes. The entire heart is weighed. The atria are removed and the left ventricle (with septum) is separated from the right ventricle. The ventricles are weighed separately before being divided into two pieces. Ventricle pieces are frozen in liquid nitrogen and placed into separate tubes. Liquid nitrogen samples are stored in a freezer set to maintain approximately −80° C. until shipped on dry ice to the Sponsor for possible future analysis.
The left tibia is removed and separated from the soft tissue. Longitudinal measurement will be obtained with a digital micrometer. The dissected tibia is disposed of with the rest of the carcass.

[2] = Pharmacokinetic analysis in mice: plasma and brain levels after oral dose; format: in vivo, C57BL/6 mice; conditions: male, C57BL/6, mouse, 10 mg/kg, 10 mg/kg PO, Brain AUC(0-2h)/Plasma AUC(0-2h) or Brain Cmax/Plasma Cmax, read-out: ratio of brain/plasma concentration (B/P)
Protocol: Animals: Male, C57BL/6 mice (Jackson Labs, 25-30 g in body weight) are provided by Jackson Laboratories. Up to five mice are housed per cage and are maintained under a 12 hour light/dark cycle with access to food and water ad libitum. All procedures for the handling and use of animals follow the guidelines of the Institutional Animal Care and Use Committee (IACUC) of Columbia University, in accordance with NIH guidelines. Eight week-old mice (N=3/dose level or treatment group) are used in the experiments.
Experimental Treatment: Compounds: Selected Compounds of the Invention are evaluated in the present study. Formulation/Vehicle: 3% 1N HCl, 5% Labrasol and 92% of 5% TPGS in 0.05M Citrate buffer (CB, pH 4.0). The test compound(s) are prepared as solution in vehicle and are dosed in a volume of 8 ml/kg.
Compound Preparation: Powdered stocks of the test compound(s) are measured and dissolved in 3% 1N HCl, 5% Labrasol and 92% of 5% TPGS in 0.05M Citrate buffer (CB, pH 4.0). Two or three layers of 3 mm glass beads are added to the bottom of the 10 ml glass tube to promote mixing. […]
Treatment of Animals: Mice (N=3 mice/dose/time point) receive a 10 mg/kg oral (PO) dose of the test compound(s) at time 0. […] Plasma and brain tissue samples are processed and analyzed by the analytical group using LC-MS/MS methods, as described below. […]
Each tube is vortexed, then centrifuged for 20 min at 15000 rpm using a Tomy benchtop centrifuge at 4° C. Standard is an internal standard used for LC-MS/MS quantitation. […]
HPLC and Mass Spectrometric Analysis: Analysis to quantify the concentration of each compound in plasma and brain homogenate is carried out using reverse phase HPLC followed by mass spectrometric detection using the parameters listed:
Each compound is detected and quantified using Multiple Reaction Monitoring (MRM) of positive electrospray mode with a Waters QuattroMicro™ mass spectrometry system.
RESULTS: Plasma and Brain Analysis: All the test compound(s) tested could be detected and analyzed when spiked into control plasma. […]

[3] = test system: isoproterenol-induced cardiac hypertrophy; assay: Isoproterenol induced cardiac hypertrophy mouse model; format: in vivo, 129S1/SvlmJ mice; conditions: for HW/TL Ratio (mean): isoproterenol 10 mg/kg s.c. days 4-9, heart weight/tibia length on day 10
Protocol: The compound of Example 2 is tested in a mouse model where the mice are treated with isoproterenol. Such a model can be useful for extrapolating to diseases or disorders involving an enlargement of the heart or cardiac tissue, e.g., congestive heart disease. Animals: 129S1/SvlmJ mice, 20-40 grams, Jackson Laboratories (Bar Harbor, Me.). Test Compound of Example 2: Test compound of Example 2 is supplied as a powder. The test article dosing solutions are prepared on the day of administration by dissolving the test compound in the vehicle (0.9% sodium chloride for injection, U.S.P.) at concentration of 2.0 mg/mL stock/dosing solution. The compound are agitated with a vortex mixer and sonicated to ensure the compound is in solution. The 2.0 mg/mL solution is diluted with vehicle to create the 0.2 mg/mL and the 0.6 mg/mL dosing solutions. Dosing solutions are stored in a refrigerator between the daily doses and are allowed to return to room temperature before the evening dose. Test Compound Isoproterenol: Test compound isoproterenol is supplied by Sigma (St. Louis, Mo.) as a powder. The test article dosing solutions are prepared on the day of administration by dissolving the test compound in the vehicle (0.9% sodium chloride for injection, U.S.P.) at concentration of 2.0 mg/mL. The compound is agitated with a vortex mixer and sonicated to ensure the compound is in solution. [table] Mice in group 1 and 2 are dosed daily via subcutaneous administration. On days 7, 10 and 14, 2 animals from groups 1 and 2 are weighed and then euthanized via CO2 asphyxiation. Hearts are harvested and gently infused with ice cold saline until clear. The entire heart is weighed. The atria are removed and the left ventricle (with septum) is separated from the right ventricle. The ventricles are weighed separately. The left tibia is removed and separated from the soft tissue. Longitudinal measurement are obtained with a digital micrometer. Mice in groups 3-6 are dosed once/day with isoproterenol subcutaneously from Days 4-9 and twice/day with vehicle or test compound via intraperitoneal administration from Days 1 to 9. On Day 10 (based on the results from Groups 1 and 2) animals from each group are weighed and then euthanized via CO2 asphyxiation. Hearts are harvested and gently infused with ice cold krebs-henseleit buffer (Sigma 3753) until clear. The entire heart is weighed. The atria are removed and the left ventricle (with septum) is separated from the right ventricle. The ventricles are weighed separately. The ventricles are stored in ice cold krebs-henseleit buffer for approximately 15 minutes and then transferred to 10% buffered formalin at room temperature until possible shipment for possible future analysis. The left tibia is removed and separated from the soft tissue. Longitudinal measurement is obtained with a digital micrometer.

Compound: CCCCc1nc(Cl)c(CO)n1Cc1ccc(-c2ccccc2-c2nn[nH]n2)cc1 [Losartan, Losartan potassium, reference compound]
Terminal LV + S/TL Ratio (mean) (TAC ratio) ([1]; 40 mg/kg (as printed in the results table) oral once/day): 6.2 mg/mm
difference in TAC ratio between the vehicle group and the treated group ([1]; vehicle vs Losartan group): not statistically significant

Kp [2]: 4.5 to 4.8
Compound: CN1C(=O)c2c(nn(Cc3ccc(C(F)(F)F)cc3)c2Nc2ccccc2)N2C1=N[C@@H]1CCC[C@@H]12 [(6aR,9aS)-3-(phenylamino)-5,6a,7,8,9,9a-hexahydro-5-methyl-2-(4-(trifluoromethyl)-benzyl)-cyclopent[4,5]imidazo[1,2-a]pyrazolo[4,3-e]pyrimidin-4(2H)-one, reference compound]

Kp [2]: < 0.05
Compound: CN1C(=O)c2c(nn(Cc3ccc(S(N)(=O)=O)cc3)c2Nc2ccc(F)cc2)N2CC(C)(C)N=C12 [Example 7, 4-((3-((4-fluorophenyl)amino)-5,7,7-trimethyl-4-oxo-4,5,7,8-tetrahydro-2H-imidazo[1,2-a]pyrazolo[4,3-e]pyrimidin-2-yl)methyl)benzenesulfonamide]

Compound: Cc1ncc(Cn2nc3c(c2Nc2ccc(F)cc2)C(=O)N(C)C2=NC(C)(C)CN23)cn1 [Example 2, 3-((4-fluorophenyl)amino)-5,7,7-trimethyl-2-((2-methylpyrimidin-5-yl)methyl)-7,8-dihydro-2H-imidazo[1,2-a]pyrazolo[4,3-e]pyrimidin-4(5H)-one]
reduction in the heart weight/tibia length (HW/TL) ratio compared to vehicle ([3]; 1 mg/kg): ~8%
HW/TL Ratio (mean) ([3]; 1 mg/kg twice/day days 1-9): 8.49 mg/mm
decrease of (LV+RV)/TL ratio (left ventricle plus right ventricle weight/tibia length) compared to vehicle ([3]; 3 mg/kg): 10%
prevention of cardiac hypertrophy ([3]; 3 mg/kg): significantly prevents cardiac hypertrophy
reduction in the heart weight/tibia length (HW/TL) ratio compared to vehicle ([3]; 3 mg/kg): ~12.5%
HW/TL Ratio (mean) ([3]; 3 mg/kg twice/day days 1-9): 8.08 mg/mm
decrease of (LV+RV)/TL ratio (left ventricle plus right ventricle weight/tibia length) compared to vehicle ([3]; 10 mg/kg): 10%
prevention of cardiac hypertrophy ([3]; 10 mg/kg): significantly prevents cardiac hypertrophy
reduction in the heart weight/tibia length (HW/TL) ratio compared to vehicle ([3]; 10 mg/kg): ~12.5%
HW/TL Ratio (mean) ([3]; 10 mg/kg twice/day days 1-9): 8.1 mg/mm
effect on the development of isoproterenol-induced cardiac hypertrophy ([3]; up to 10 mg/kg): statistically significant effect
effect on cardiac hypertrophy induced by the TAC constriction ([1]; 3 mg/kg): tendency to reverse the cardiac hypertrophy
Terminal LV + S/TL Ratio (mean) (TAC ratio) ([1]; 3 mg/kg oral twice/day): 5.8 mg/mm
effect on cardiac hypertrophy induced by the TAC constriction ([1]; 10 mg/kg): tendency to reverse the cardiac hypertrophy
Terminal LV + S/TL Ratio (mean) (TAC ratio) ([1]; 10 mg/kg oral twice/day): 5.8 mg/mm
difference in TAC ratio between the sham group and the treated groups ([1]; sham vs compound groups): not statistically significant

Kp [2]: ≤ 0.1
Compound: CN1C(=O)c2c(nn(Cc3ccncc3)c2Nc2ccc(F)cc2)N2CC(C)(C)N=C12 [Example 1, 3-((4-fluorophenyl)amino)-5,7,7-trimethyl-2-(pyridin-4-ylmethyl)-7,8-dihydro-2H-imidazo[1,2-a]pyrazolo[4,3-e]pyrimidin-4(5H)-one]

— patent US10131671B2, “Organic compounds” (Intra-Cellular Therapies, Inc., priority 2014, dated 2018)
